In ChEMBL document CHEMBL1909046, “DrugMatrix in vitro pharmacology data”:

Key:
Melanocortin receptor 5 = Melanocortin receptor 5 (Homo sapiens, UniProt P33032); assay type: cell membranes, HEK293, Membrane; conditions: hek293; further: in other assays of this panel Not Active means under 50% inhibition at 10 µM
Glucocorticoid receptor = target: T1, Glucocorticoid receptor (Homo sapiens, UniProt P04150); conditions: hela s3; further: in other assays of this panel Not Active means under 50% inhibition at 10 µM
T1 sequence (P04150 whole entry): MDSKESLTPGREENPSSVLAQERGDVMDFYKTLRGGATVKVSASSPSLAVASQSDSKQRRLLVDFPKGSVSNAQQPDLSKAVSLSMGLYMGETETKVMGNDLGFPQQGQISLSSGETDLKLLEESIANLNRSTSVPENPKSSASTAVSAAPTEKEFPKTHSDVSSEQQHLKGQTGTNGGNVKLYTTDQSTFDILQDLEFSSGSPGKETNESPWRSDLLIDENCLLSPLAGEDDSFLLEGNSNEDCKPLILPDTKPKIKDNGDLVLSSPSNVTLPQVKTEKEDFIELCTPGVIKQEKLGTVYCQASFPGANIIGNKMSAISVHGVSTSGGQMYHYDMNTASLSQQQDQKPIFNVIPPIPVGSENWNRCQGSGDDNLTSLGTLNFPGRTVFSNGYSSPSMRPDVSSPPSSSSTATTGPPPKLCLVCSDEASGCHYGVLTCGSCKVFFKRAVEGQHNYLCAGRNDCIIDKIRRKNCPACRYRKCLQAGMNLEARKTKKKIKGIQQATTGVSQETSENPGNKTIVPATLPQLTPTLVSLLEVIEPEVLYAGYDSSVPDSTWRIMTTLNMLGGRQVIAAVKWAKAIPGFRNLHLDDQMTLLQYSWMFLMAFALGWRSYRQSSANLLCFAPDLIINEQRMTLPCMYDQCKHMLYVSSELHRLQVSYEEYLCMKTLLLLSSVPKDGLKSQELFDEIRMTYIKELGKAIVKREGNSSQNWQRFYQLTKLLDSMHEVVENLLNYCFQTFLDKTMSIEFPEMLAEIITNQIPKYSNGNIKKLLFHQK

Melanocortin receptor 4 = Melanocortin receptor 4 (Homo sapiens, UniProt P32245); assay type: cell membranes, Membrane; conditions: hek293; further: in other assays of this panel Not Active means under 50% inhibition at 10 µM
[1] = target: cGMP-specific 3',5'-cyclic phosphodiesterase (Homo sapiens, UniProt O76074); test: DRUGMATRIX: Phosphodiesterase PDE5 enzyme inhibition (substrate: [3H]cGMP + cGMP); assay type: tissue-based, Platelet; conditions: platelet; Not Active = under 50% inhibition at 10 µM
[2] = target: Beta-2 adrenergic receptor (Homo sapiens, UniProt P07550); test: DRUGMATRIX: Adrenergic beta2 radioligand binding (ligand: [3H] CGP-12177); assay type: cell membranes, CHO, Membrane; conditions: cho; Not Active = under 50% inhibition at 10 µM
Cytochrome P450 2A6 = target: T2, Cytochrome P450 2A6 (Homo sapiens, UniProt P11509); conditions: bti-tn-5b1-4; further: in other assays of this panel Not Active means under 50% inhibition at 10 µM
T2 sequence (P11509 whole entry): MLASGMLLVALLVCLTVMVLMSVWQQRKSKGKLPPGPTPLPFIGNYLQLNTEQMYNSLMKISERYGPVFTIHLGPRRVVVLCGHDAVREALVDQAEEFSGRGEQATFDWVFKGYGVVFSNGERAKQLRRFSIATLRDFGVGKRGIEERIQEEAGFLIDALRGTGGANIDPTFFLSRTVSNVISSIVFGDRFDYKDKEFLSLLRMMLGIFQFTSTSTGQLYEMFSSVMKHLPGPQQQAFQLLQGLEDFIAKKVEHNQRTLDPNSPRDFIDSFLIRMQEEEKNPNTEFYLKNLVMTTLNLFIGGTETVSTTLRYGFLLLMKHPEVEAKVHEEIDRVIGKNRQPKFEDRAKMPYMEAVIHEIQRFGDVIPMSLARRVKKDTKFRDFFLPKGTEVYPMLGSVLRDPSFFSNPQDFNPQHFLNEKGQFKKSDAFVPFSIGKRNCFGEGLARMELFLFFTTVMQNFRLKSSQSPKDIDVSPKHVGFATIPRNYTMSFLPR

[3] = DRUGMATRIX: ATPase, Na+/K+ enzyme inhibition (substrate: ATP); assay type: tissue-based, Sus scrofa, Heart; conditions: Not Active = under 50% inhibition at 10 µM
[4] = DRUGMATRIX: GABAA, Muscimol, Central radioligand binding (ligand: [3H] Muscimol); assay type: cell membranes, Rattus norvegicus, Wistar, Brain, Membrane; conditions: Not Active = under 50% inhibition at 10 µM
[5] = target: Beta-1 adrenergic receptor (Homo sapiens, UniProt P08588); test: DRUGMATRIX: Adrenergic beta1 radioligand binding (ligand: [125I] Cyanopindolol); assay type: cell membranes, CHO-K1, Membrane; conditions: cho-k1; Not Active = under 50% inhibition at 10 µM
Beta-1 adrenergic receptor, sequence (P08588 whole entry): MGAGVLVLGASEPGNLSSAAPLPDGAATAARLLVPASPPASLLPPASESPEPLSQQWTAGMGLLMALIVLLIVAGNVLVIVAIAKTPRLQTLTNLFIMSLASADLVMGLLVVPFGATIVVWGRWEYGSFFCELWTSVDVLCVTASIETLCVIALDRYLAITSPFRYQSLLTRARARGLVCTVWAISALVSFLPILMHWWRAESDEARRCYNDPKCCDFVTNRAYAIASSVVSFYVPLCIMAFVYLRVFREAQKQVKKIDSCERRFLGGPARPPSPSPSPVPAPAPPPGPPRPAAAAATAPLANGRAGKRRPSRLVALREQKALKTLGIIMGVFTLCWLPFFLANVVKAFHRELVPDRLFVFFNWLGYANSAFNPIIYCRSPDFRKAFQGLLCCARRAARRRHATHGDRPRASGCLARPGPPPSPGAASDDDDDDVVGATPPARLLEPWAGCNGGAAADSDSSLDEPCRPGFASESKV

Melanocortin receptor 5, sequence (P33032 whole entry): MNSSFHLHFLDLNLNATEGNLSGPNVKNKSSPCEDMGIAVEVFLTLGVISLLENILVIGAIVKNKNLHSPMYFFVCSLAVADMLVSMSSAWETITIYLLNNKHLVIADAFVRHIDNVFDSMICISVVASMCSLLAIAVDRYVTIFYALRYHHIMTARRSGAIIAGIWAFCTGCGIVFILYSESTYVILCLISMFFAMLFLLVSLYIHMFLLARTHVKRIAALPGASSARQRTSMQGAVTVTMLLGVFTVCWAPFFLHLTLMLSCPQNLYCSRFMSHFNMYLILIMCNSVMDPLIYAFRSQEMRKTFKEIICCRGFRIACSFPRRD
Melanocortin receptor 4, sequence (P32245 whole entry): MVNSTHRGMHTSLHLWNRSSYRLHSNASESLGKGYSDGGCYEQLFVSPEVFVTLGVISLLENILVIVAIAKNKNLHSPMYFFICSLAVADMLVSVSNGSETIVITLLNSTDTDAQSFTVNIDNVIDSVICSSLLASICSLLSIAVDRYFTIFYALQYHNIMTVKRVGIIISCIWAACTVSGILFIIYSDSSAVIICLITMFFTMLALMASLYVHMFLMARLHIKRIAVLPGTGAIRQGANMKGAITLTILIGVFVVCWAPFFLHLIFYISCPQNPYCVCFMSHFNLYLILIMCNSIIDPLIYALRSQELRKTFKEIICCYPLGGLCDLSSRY

COC(=O)C[C@](O)(CCC(C)(C)O)C(=O)O[C@@H]1C(OC)=C[C@]23CCCN2CCc2cc4c(cc2[C@H]13)OCO4 [HARRINGTONINE]
Not Active: IC50 (Melanocortin receptor 5) | IC50 (Glucocorticoid receptor) | IC50 (Melanocortin receptor 4) | IC50 [1] | IC50 [2] | IC50 (Cytochrome P450 2A6) | Ki (Cytochrome P450 2A6) | IC50 [3] | Ki [3] | IC50 [4] | Ki [4] | IC50 [5]

CHROMIC CHLORIDE
Not Active: IC50 (Melanocortin receptor 5) | Ki (Melanocortin receptor 5) | IC50 (Glucocorticoid receptor) | Ki (Glucocorticoid receptor) | IC50 (Melanocortin receptor 4) | Ki (Melanocortin receptor 4) | IC50 [1] | Ki [1] | IC50 [2] | Ki [2] | IC50 (Cytochrome P450 2A6) | Ki (Cytochrome P450 2A6) | IC50 [3] | Ki [3] | IC50 [4] | Ki [4] | IC50 [5] | Ki [5]

O=C1CN(/N=C/c2ccc([N+](=O)[O-])o2)C(=O)N1 [NITROFURANTOIN]
Not Active: IC50 (Melanocortin receptor 5) | IC50 (Glucocorticoid receptor) | IC50 (Melanocortin receptor 4) | IC50 [1] | IC50 [2] | IC50 (Cytochrome P450 2A6) | Ki (Cytochrome P450 2A6) | IC50 [3] | Ki [3] | IC50 [4] | Ki [4] | IC50 [5]

c1ccc(Cn2ccnc2)cc1
Not Active: IC50 (Melanocortin receptor 5) | IC50 (Glucocorticoid receptor) | IC50 (Melanocortin receptor 4) | IC50 [1] | IC50 [2] | IC50 (Cytochrome P450 2A6) | Ki (Cytochrome P450 2A6) | IC50 [3] | Ki [3] | IC50 [4] | Ki [4] | IC50 [5]

CC(C)Cn1cnc2c(N)nc3ccccc3c21 [IMIQUIMOD]
Not Active: IC50 (Melanocortin receptor 5) | IC50 (Glucocorticoid receptor) | IC50 (Melanocortin receptor 4) | IC50 [1] | IC50 [2] | IC50 (Cytochrome P450 2A6) | Ki (Cytochrome P450 2A6) | IC50 [3] | Ki [3] | IC50 [4] | Ki [4] | IC50 [5]

OC[C@H]1OC2C3[C@@H](CO)OC(O[C@H]4[C@H](O)[C@@H](O)[C@@H](O[C@H]5[C@H](O)[C@@H](O)[C@@H](O[C@H]6[C@H](O)[C@@H](O)[C@@H](O[C@H]7[C@H](O)[C@@H](O)[C@@H](O[C@H]8[C@H](O)[C@@H](O)[C@@H](O[C@H]9[C@H](O)[C@@H](O)C(OC1[C@H](O)[C@H]2O)O[C@@H]9CO)O[C@@H]8CO)O[C@@H]7CO)O[C@@H]6CO)O[C@@H]5CO)O[C@@H]4CO)[C@H](O)[C@H]3O
Not Active: IC50 (Melanocortin receptor 5) | IC50 (Glucocorticoid receptor) | IC50 (Melanocortin receptor 4) | IC50 [1] | IC50 [2] | IC50 (Cytochrome P450 2A6) | Ki (Cytochrome P450 2A6) | IC50 [3] | Ki [3] | IC50 [4] | Ki [4] | IC50 [5]

COc1cc(/C=C/C(=O)O)ccc1O [FERULATE]
Not Active: IC50 (Melanocortin receptor 5) | IC50 (Glucocorticoid receptor) | IC50 (Melanocortin receptor 4) | IC50 [1] | IC50 [2] | IC50 (Cytochrome P450 2A6) | Ki (Cytochrome P450 2A6) | IC50 [3] | Ki [3] | IC50 [4] | Ki [4] | IC50 [5]

CO[C@H]1O[C@@H]2O[C@@]3(C)CC[C@H]4[C@H](C)CC[C@@H]([C@H]1C)[C@@]24OO3
Not Active: IC50 (Melanocortin receptor 5) | IC50 (Glucocorticoid receptor) | IC50 (Melanocortin receptor 4) | IC50 [1] | IC50 [2] | IC50 (Cytochrome P450 2A6) | Ki (Cytochrome P450 2A6) | IC50 [3] | Ki [3] | IC50 [4] | Ki [4] | IC50 [5]

C[C@@H]1[C@H](O)[C@@H](C)/C=C/C=C/C=C/C=C/C=C/C=C/C=C/[C@H](O[C@@H]2O[C@H](C)[C@@H](O)[C@H](N)[C@@H]2O)C[C@@H]2O[C@](O)(C[C@@H](O)C[C@@H](O)[C@H](O)CC[C@@H](O)C[C@@H](O)CC(=O)O[C@H]1C)C[C@H](O)[C@H]2C(=O)O [AMPHOTERICIN B]
Not Active: IC50 (Melanocortin receptor 5) | IC50 (Glucocorticoid receptor) | IC50 (Melanocortin receptor 4) | IC50 [1] | IC50 [2] | IC50 (Cytochrome P450 2A6) | Ki (Cytochrome P450 2A6) | IC50 [3] | Ki [3] | IC50 [4] | Ki [4] | IC50 [5]

Oc1ncnc2[nH]ncc12 [ALLOPURINOL]
Not Active: IC50 (Melanocortin receptor 5) | IC50 (Glucocorticoid receptor) | IC50 (Melanocortin receptor 4) | IC50 [1] | IC50 [2] | IC50 (Cytochrome P450 2A6) | Ki (Cytochrome P450 2A6) | IC50 [3] | Ki [3] | IC50 [4] | Ki [4] | IC50 [5]

COc1cc([C@@H]2c3cc4c(cc3[C@H](O)[C@H]3COC(=O)[C@H]23)OCO4)cc(OC)c1OC [PODOFILOX]
Not Active: IC50 (Melanocortin receptor 5) | IC50 (Glucocorticoid receptor) | IC50 (Melanocortin receptor 4) | IC50 [1] | IC50 [2] | IC50 (Cytochrome P450 2A6) | Ki (Cytochrome P450 2A6) | IC50 [3] | Ki [3] | IC50 [4] | Ki [4] | IC50 [5]

NC(=O)CN1CCCC1=O
Not Active: IC50 (Melanocortin receptor 5) | IC50 (Glucocorticoid receptor) | IC50 (Melanocortin receptor 4) | IC50 [1] | IC50 [2] | IC50 (Cytochrome P450 2A6) | Ki (Cytochrome P450 2A6) | IC50 [3] | Ki [3] | IC50 [4] | Ki [4] | IC50 [5]

POVIDONE
Not Active: IC50 (Melanocortin receptor 5) | Ki (Melanocortin receptor 5) | IC50 (Glucocorticoid receptor) | Ki (Glucocorticoid receptor) | IC50 (Melanocortin receptor 4) | Ki (Melanocortin receptor 4) | IC50 [1] | Ki [1] | IC50 [2] | Ki [2] | IC50 (Cytochrome P450 2A6) | Ki (Cytochrome P450 2A6) | IC50 [3] | Ki [3] | IC50 [4] | Ki [4] | IC50 [5] | Ki [5]

CN(Cc1cc(Br)cc(Br)c1N)C1CCCCC1 [BROMHEXINE]
Not Active: IC50 (Melanocortin receptor 5) | IC50 (Glucocorticoid receptor) | IC50 (Melanocortin receptor 4) | IC50 [1] | IC50 [2] | IC50 (Cytochrome P450 2A6) | Ki (Cytochrome P450 2A6) | IC50 [3] | Ki [3] | IC50 [4] | Ki [4] | IC50 [5]

Nc1ccc(Cc2ccc(N)cc2)cc1
Not Active: IC50 (Melanocortin receptor 5) | IC50 (Glucocorticoid receptor) | IC50 (Melanocortin receptor 4) | IC50 [1] | IC50 [2] | IC50 (Cytochrome P450 2A6) | Ki (Cytochrome P450 2A6) | IC50 [3] | Ki [3] | IC50 [4] | Ki [4] | IC50 [5]

C[C@]12CC[C@@H](O)C[C@@H]1CC[C@@H]1[C@@H]2CC[C@]2(C)C(=O)CC[C@@H]12 [ANDROSTERONE]
Not Active: IC50 (Melanocortin receptor 5) | IC50 (Glucocorticoid receptor) | IC50 (Melanocortin receptor 4) | IC50 [1] | IC50 [2] | IC50 (Cytochrome P450 2A6) | Ki (Cytochrome P450 2A6) | IC50 [3] | Ki [3] | IC50 [4] | Ki [4] | IC50 [5]

CC(=O)Nc1ccc2c(c1)Cc1ccccc1-2 [2-ACETYLAMINOFLUORENE]
Not Active: IC50 (Melanocortin receptor 5) | IC50 (Glucocorticoid receptor) | IC50 (Melanocortin receptor 4) | IC50 [1] | IC50 [2] | IC50 (Cytochrome P450 2A6) | Ki (Cytochrome P450 2A6) | IC50 [3] | Ki [3] | IC50 [4] | Ki [4] | IC50 [5]
